Entries after “also recorded” stand apart in the source; their conditions may differ.
Experiments:
PC3-LN4 cells [1] = assay: Western blotting of PC3-LN4 cell lysates; format: cell-based, human; settings: PC3-LN4 cells with CRISPR/CAS9 knockout of TSC2 or DEPDC5
mTORC = assay: Phosphorylation of mTORC substrates in PANC1 cells (Western blot); format: cell-based; settings: overnight incubation
Method: Immunoblotting: Western blots were performed as described previously. Briefly, protein lysates (30 μg) were subjected to SDS-PAGE and transferred to nitrocellulose membranes. After blocking with 5% milk in TBST buffer for 30 min at room temperature, the membranes were incubated overnight at 4° C. with the Indicated primary antibody in 3% BSA in TBST. Specific proteins were detected with the corresponding HRP conjugated secondary antibody using enhanced chemiluminescence (GE Lifesciences, Piscataway, NJ).
Because of ease of growth, PANC1 pancreatic cancer cells were used to test the activity of derivatives of VBT-5445 (FIG. 14). […] Using a doxycycline inducible Pim kinase vector in these tumor cells, this inhibition of phosphorylation was proportional to the level of Pim in these cells (FIG. 9). […] Inhibition of mTORC1 is known to stimulate the feedback activation of mTORC2 leading to AKT phosphorylation. […] The effect of these compounds on mTORC1 and 2 was still evident in PC3-LN4 cells that contained a knockout (KO) using CRISPR/CAS9 of either TSC2 or DEPDC5 (FIG. 12, lanes 4-9). TSC2 KO activated the Rheb GTPase while DEPDC5 KO activated the RAG GTPase both of which stimulate mTORC1 activity. Thus, GRG compounds were capable of inhibiting mTORC1 activity even when this kinase was highly activated.

PC3-LN4 cells [2] = assay: P-body (PB) number in PC3-LN4 GFP-EDC3 cells; format: cell-based, human; settings: 6 h
Method: FIGS. 7A-7I show inhibition of VBT5445 (VBT) on Pim1 and EDC3 binding and phosphorylation. FIG. 7A: In vitro co-precipitation (Co-PPT) assay was performed with recombinant EDC3 and biotinylated Pim1 using Streptavidin beads with increasing concentrations of the Pim inhibitor VBT5445 (VBT). FIG. 7B: Kinase assays were performed with recombinant EDC3 and Pim1 with increasing concentrations of VBT. FIG. 7C: Cell lysates from PC3-LN4 cells cultured with DMSO, 10 μM VBT, 3 μM AZD5363 (AKTi) and the combination for 6 hrs were subjected to western blotting (WB). […] WBs were performed using the indicated antibodies. FIG. 7E: PC3-LN4 cells were seeded into 48 well plate and incubated with either DMSO, VBT, AZD5363 or the combination, for 4.5 days. A real-time imaging system (IncuCyte™) was used to measure cell proliferation using a non-label cell monolayer confluence approach. FIG. 7F-7H: GFP image in PC3 LN4 GFP EDC3 expressing cells treated with PIMi: VBT (5 μM) and VBT (5 μM)+AZD5363 (3 μM) for 6 hrs.
To measure PB numbers, PC3-LN4 PCa cells containing a CRISPR/Cas total knock-out of EDC3 were stably transduced with GFP-EDC3. When localized in PBs, GFP spots could be quantified. PBs were quantified at the University of Colorado Center for Drug Discovery using an Opera Phenix Plus high content screening system (PerkinElmer) Perkin Elmer G3 robotic system after drug treatment. Assays were carried out in quadruplicate and the mean number of PBs per cell and cell area calculated. An example of this assay is shown using […] buffered saline (HBSS) to induce PB formation.
Immunofluorescence: Immunofluorescence (IF) staining was performed on PC3-LN4 cells stably expressing EDC3-GFP. 1×10^4 cells were seeded in each chamber of an 8 well chamber slide (Nunc Lab-Tek II Chamber Slide System, Life Technologies) and cultured for 48 h. After attaching to the chamber slides cells were treated with DMSO, VB-5445 ([…]), AZD5363 (3 μM), or the combination for 6 h. Cells were then fixed with 4% paraformaldehyde in PBS for 15 min and subsequently permeabilized with 0.2% Triton X-100 in PBS. Cells were stained with diluted DAPI (1:4000) in 1% nor-mal goat serum in PBS. Cells were mounted with Prolong Gold Antifade mounting medium (Molecular Probes).

## O=c1c(CNCc2cc(Br)ccn2)cc2ccc(Cl)cc2n1CCOc1ccccc1 [GRG-1-34, 3-((((4-bromopyridin-2-yl)methyl)amino)methyl)-7-chloro-1-(2-phenoxyethyl) quinolin-2 (1H)-one]
PC3-LN4 cells [1]
  mTORC activity in TSC2 or DEPDC5 KO prostate tumor cells: inhibits mTORC
mTORC; FIG. 19
  block of phosphorylation of mTORC substrates (AKT, 4E-BP1, S6): block the phosphorylation of mTORC substrates
mTORC; FIG. 19, listed as VBT 1-34
  block of phosphorylation of mTORC substrates (AKT, 4E-BP1, S6): inhibit phosphorylation of mTORC substrates
PC3-LN4 cells [2]; combination with AZD5363 (3 μM), listed as VBT 1-34
  number of P-bodies, with AKT inhibitor AZD5363 added: further increased the number of P-bodies; also recorded: further increases P-bodies
PC3-LN4 cells [2]; compound alone
  number of P-bodies: increases the number of P-bodies
